Reference: patent US7718808B2, “Thiazole derivatives” (Kyowa Hakko Kirin Co., Ltd., priority 2003, dated 2010)

SMILES	melting point
N#Cc1cccc(C(=O)Nc2nc(-c3ccco3)c(C(=O)c3ccccn3)s2)c1 [Compound 205, 3-Cyano-N-[4-(2-furyl)-5-(pyridin-2-ylcarbonyl)thiazol-2-yl]benzamide]	234 to 237 °C
CC(=O)c1cccc(C(=O)Nc2nc(-c3ccco3)c(C(=O)c3ccccn3)s2)c1 [Compound 207, 3-Acetyl-N-[4-(2-furyl)-5-(pyridin-2-ylcarbonyl)thiazol-2-yl]benzamide]	168 to 169 °C
CC(=O)c1ccc(C(=O)Nc2nc(-c3ccco3)c(C(=O)c3ccccn3)s2)cc1 [Compound 208, 4-Acetyl-N-[4-(2-furyl)-5-(pyridin-2-ylcarbonyl)thiazol-2-yl]benzamide]	204 to 206 °C
O=C(Nc1nc(-c2ccco2)c(C(=O)c2ccccn2)s1)c1ccc2c(c1)OCO2 [Compound 209, N-[4-(2-Furyl)-5-(pyridin-2-ylcarbonyl)thiazol-2-yl]-3,4-methylenedioxybenzamide]	235 to 236 °C
O=C(Nc1nc(-c2ccco2)c(C(=O)c2ccccn2)s1)c1ccc2c(c1)OCCO2 [Compound 210, N-[4-(2-Furyl)-5-(pyridin-2-ylcarbonyl)thiazol-2-yl]-1,4-benzodioxane-6-carboxamide]	189 to 191 °C
O=C(c1ccccn1)c1sc(NC(=O)C2COc3ccccc3O2)nc1-c1ccco1 (centres unmarked) [Compound 211, N-[4-(2-Furyl)-5-(pyridin-2-ylcarbonyl)thiazol-2-yl]-1,4-benzodioxane-2-carboxamide]	103 to 104 °C
O=C(Nc1nc(-c2ccco2)c(C(=O)c2ccccn2)s1)c1ccnc(Cl)c1 [Compound 214, 2-Chloro-N-[4-(2-furyl)-5-(pyridin-2-ylcarbonyl)thiazol-2-yl]pyridine-4-carboxamide]	219 to 225 °C
COCCN(C)c1cc(C(=O)Nc2nc(-c3ccco3)c(C(=O)c3ccccn3)s2)ccn1 [Compound 217, N-[4-(2-Furyl)-5-(pyridin-2-ylcarbonyl)thiazol-2-yl]-2-[N-(2-methoxyethyl)-N-methylamino]pyridine-4-carboxamide]	114 to 117 °C
O=C(Nc1nc(-c2ccco2)c(C(=O)c2ccccn2)s1)c1ccnc(N2CCCCC2)c1 [Compound 218, N-[4-(2-Furyl)-5-(pyridin-2-ylcarbonyl)thiazol-2-yl]-2-piperidinopyridine-4-carboxamide]	136 to 141 °C
O=C(Nc1nc(-c2ccco2)c(C(=O)c2ccccn2)s1)c1ccnc(N2CCOCC2)c1 [Compound 219, N-[4-(2-Furyl)-5-(pyridin-2-ylcarbonyl)thiazol-2-yl]-2-morpholinopyridine-4-carboxamide]	216 to 217 °C
Cc1cncc(C(=O)Nc2nc(-c3ccco3)c(C(=O)c3ccccn3)s2)c1 [Compound 223, N-[4-(2-Furyl)-5-(pyridine-2-ylcarbonyl)thiazol-2-yl]-5-methylpyridine-3-carboxamide]	245 to 248 °C
O=C(Nc1nc(-c2ccco2)c(C(=O)c2ccccn2)s1)c1cncc(Br)c1 [Compound 226, 5-Bromo-N-[4-(2-furyl)-5-(pyridin-2-ylcarbonyl)thiazol-2-yl]pyridine-3-carboxamide]	259 to 262 °C
O=C(Nc1nc(-c2ccco2)c(C(=O)c2ccccn2)s1)c1ccnnc1 [Compound 227, N-[4-(2-Furyl)-5-(pyridin-2-ylcarbonyl)thiazol-2-yl]pyridazine-4-carboxamide]	270 to 274 °C
O=C(Nc1nc(-c2ccco2)c(C(=O)c2ccccn2)s1)c1cnc(C2CC2)nc1 [Compound 229, 2-Cyclopropyl-N-[4-(2-furyl)-5-(pyridin-2-ylcarbonyl)thiazol-2-yl]pyrimidine-5-carboxamide]	150 to 154 °C
Cc1cnc(C(=O)Nc2nc(-c3ccco3)c(C(=O)c3ccccn3)s2)cn1 [Compound 230, N-[4-(2-Furyl)-5-(pyridine-2-ylcarbonyl)thiazol-2-yl]-5-methylpyrazine-2-carboxamide]	208 to 209 °C
O=C(Nc1nc(-c2ccco2)c(C(=O)c2ccccn2)s1)c1cc[nH]c(=O)c1 [Compound 231, N-[4-(2-Furyl)-5-(pyridin-2-ylcarbonyl)thiazol-2-yl]-2-oxo-1,2-dihydropyridine-4-carboxamide]	170 to 180 °C (dec.)
O=C(Nc1nc(-c2ccco2)c(C(=O)c2ccccn2)s1)c1ccn(Cc2ccccc2)c(=O)c1 [Compound 232, 1-Benzyl-N-[4-(2-furyl)-5-(pyridin-2-ylcarbonyl)thiazol-2-yl]-2-oxo-1,2-dihydropyridine-4-carboxamide]	269 to 270 °C
Cn1ccc(C(=O)Nc2nc(-c3ccco3)c(C(=O)c3ccccn3)s2)cc1=O [Compound 233, N-[4-(2-Furyl)-5-(pyridin-2-ylcarbonyl)thiazol-2-yl]-1-methyl-2-oxo-1,2-dihydropyridine-4-carboxamide]	280 to 285 °C
O=C(Nc1nc(-c2ccco2)c(C(=O)c2ccccn2)s1)c1ccc(Br)o1 [Compound 235, 5-Bromo-N-[4-(2-furyl)-5-(pyridin-2-ylcarbonyl)thiazol-2-yl]furan-2-carboxamide]	211 to 212 °C
O=C(Nc1nc(-c2ccco2)c(C(=O)c2ccccn2)s1)c1ccc([N+](=O)[O-])o1 [Compound 236, N-[4-(2-Furyl)-5-(pyridin-2-ylcarbonyl)thiazol-2-yl]-5-nitrofuran-2-carboxamide]	278 to 283 °C (dec.)
Cc1ccoc1C(=O)Nc1nc(-c2ccco2)c(C(=O)c2ccccn2)s1 [Compound 237, N-[4-(2-Furyl)-5-(pyridin-2-ylcarbonyl)thiazol-2-yl]-3-methylfuran-2-carboxamide]	174 to 176 °C
O=C(Nc1nc(-c2ccco2)c(C(=O)c2ccccn2)s1)c1ccoc1 [Compound 238, N-[4-(2-Furyl)-5-(pyridin-2-ylcarbonyl)thiazol-2-yl]furan-3-carboxamide]	187 to 189 °C
O=C(Nc1nc(-c2ccco2)c(C(=O)c2ccccn2)s1)c1cccs1 [Compound 241, N-[4-(2-Furyl)-5-(pyridin-2-ylcarbonyl)thiazol-2-yl]thiophene-2-carboxamide]	197 to 199 °C
O=C(Nc1nc(-c2ccco2)c(C(=O)c2ccccn2)s1)c1ccno1 [Compound 242, N-[4-(2-Furyl)-5-(pyridin-2-ylcarbonyl)thiazol-2-yl]isoxazole-5-carboxamide]	223 to 230 °C
O=C(Nc1nc(-c2ccco2)c(C(=O)c2ccccn2)s1)c1ccc2snnc2c1 [Compound 244, N-[4-(2-Furyl)-5-(pyridin-2-ylcarbonyl)thiazol-2-yl]-1,2,3-benzothiadiazole-5-carboxamide]	213 to 218 °C

Next, values leading:

melting point	SMILES
165 to 166 °C	COc1cccc(C(=O)Nc2nc(-c3ccco3)c(C(=O)c3ccccn3)s2)c1 [Compound 201, N-[4-(2-Furyl)-5-(pyridin-2-ylcarbonyl)thiazol-2-yl]-3-methoxybenzamide]
187 to 188 °C	COc1ccc(C(=O)Nc2nc(-c3ccco3)c(C(=O)c3ccccn3)s2)cc1 [Compound 202, N-[4-(2-Furyl)-5-(pyridin-2-ylcarbonyl)thiazol-2-yl]-4-methoxybenzamide]
169 to 170 °C	COc1ccc(C(=O)Nc2nc(-c3ccco3)c(C(=O)c3ccccn3)s2)cc1OC [Compound 203, N-[4-(2-Furyl)-5-(pyridin-2-ylcarbonyl)thiazol-2-yl]-3,4-dimethoxybenzamide]
172 to 180 °C (dec.)	COc1cc(C(=O)Nc2nc(-c3ccco3)c(C(=O)c3ccccn3)s2)cc(OC)c1OC [Compound 204, N-[4-(2-Furyl)-5-(pyridin-2-ylcarbonyl)thiazol-2-yl]-3,4,5-trimethoxybenzamide]
187 to 188 °C	Cc1cc(C(=O)Nc2nc(-c3ccco3)c(C(=O)c3ccccn3)s2)ccn1 [Compound 212, N-[4-(2-Furyl)-5-(pyridin-2-ylcarbonyl)thiazol-2-yl]-2-methylpyridine-4-carboxamide]
206 to 207 °C	O=C(Nc1nc(-c2ccco2)c(C(=O)c2ccccn2)s1)c1ccncc1Cl [Compound 215, 3-Chloro-N-[4-(2-furyl)-5-(pyridin-2-ylcarbonyl)thiazol-2-yl]pyridine-4-carboxamide]
254 to 258 °C	O=C(Nc1nc(-c2ccco2)c(C(=O)c2ccccn2)s1)c1cc(Cl)nc(Cl)c1 [Compound 216, 2,6-Dichloro-N-[4-(2-furyl)-5-(pyridin-2-ylcarbonyl)thiazol-2-yl]pyridine-4-carboxamide]
186 to 187 °C	Cc1ncccc1C(=O)Nc1nc(-c2ccco2)c(C(=O)c2ccccn2)s1 [Compound 221, N-[4-(2-Furyl)-5-(pyridin-2-ylcarbonyl)thiazol-2-yl]-2-methylpyridine-3-carboxamide]
210 to 215 °C	Cc1ccc(C(=O)Nc2nc(-c3ccco3)c(C(=O)c3ccccn3)s2)cn1 [Compound 222, N-[4-(2-Furyl)-5-(pyridin-2-ylcarbonyl)thiazol-2-yl]-2-methylpyridine-5-carboxamide]
201 to 202 °C	COc1ccc(C(=O)Nc2nc(-c3ccco3)c(C(=O)c3ccccn3)s2)c(OC)n1 [Compound 224, N-[4-(2-Furyl)-5-(pyridin-2-ylcarbonyl)thiazol-2-yl]-2,6-dimethoxypyridine-3-carboxamide]
183 to 186 °C	Cc1occc1C(=O)Nc1nc(-c2ccco2)c(C(=O)c2ccccn2)s1 [Compound 239, N-[4-(2-Furyl)-5-(pyridin-2-ylcarbonyl)thiazol-2-yl]-2-methylfuran-3-carboxamide]
195 to 198 °C	Cc1cc(C(=O)Nc2nc(-c3ccco3)c(C(=O)c3ccccn3)s2)c(C)o1 [Compound 240, N-[4-(2-Furyl)-5-(pyridin-2-ylcarbonyl)thiazol-2-yl]-2,5-dimethylfuran-3-carboxamide]
209 to 213 °C	Cc1cc(C(=O)Nc2nc(-c3ccco3)c(C(=O)c3ccccn3)s2)no1 [Compound 243, N-[4-(2-Furyl)-5-(pyridin-2-ylcarbonyl)thiazol-2-yl]-5-methylisoxazole-3-carboxamide]
